Source: patent publication US20260132129A1 (Genesis Therapeutics, Inc., priority 2022, published 2026)

Target: T1, PI3Kα H1047R (T47D cells) (Homo sapiens, UniProt P42336, H1047R)
T1 construct: endogenous in cells; host or cells: T47D cells
Experiment: PI3Kα cellular assay: pAKT HTRF in T47D cells after EGF stimulation
Assay type: cell-based
Settings: for IC50: T47D cells (PI3Kα H1047R), pAKT S473 HTRF, EGF stimulation; for T47D pAKT S473 HTRF IC50 (H1047R): T47D (H1047R) selectivity over SKBR3 (WT): selectivity of T47D (H1047R) over SKBR3 (WT) pAKT IC50
Outline: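 pAKT read by HTRF in lysates of EGF-stimulated (20 ng/mL, 10 min) T47D H1047R cells. Before stimulation, serum-starved cells (16 h) received compound for 1 h at 37 °C, dosed from 10,000 nM down to 0.5 nM in 3-fold steps.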

T1 sequence (P42336 whole entry H1047R): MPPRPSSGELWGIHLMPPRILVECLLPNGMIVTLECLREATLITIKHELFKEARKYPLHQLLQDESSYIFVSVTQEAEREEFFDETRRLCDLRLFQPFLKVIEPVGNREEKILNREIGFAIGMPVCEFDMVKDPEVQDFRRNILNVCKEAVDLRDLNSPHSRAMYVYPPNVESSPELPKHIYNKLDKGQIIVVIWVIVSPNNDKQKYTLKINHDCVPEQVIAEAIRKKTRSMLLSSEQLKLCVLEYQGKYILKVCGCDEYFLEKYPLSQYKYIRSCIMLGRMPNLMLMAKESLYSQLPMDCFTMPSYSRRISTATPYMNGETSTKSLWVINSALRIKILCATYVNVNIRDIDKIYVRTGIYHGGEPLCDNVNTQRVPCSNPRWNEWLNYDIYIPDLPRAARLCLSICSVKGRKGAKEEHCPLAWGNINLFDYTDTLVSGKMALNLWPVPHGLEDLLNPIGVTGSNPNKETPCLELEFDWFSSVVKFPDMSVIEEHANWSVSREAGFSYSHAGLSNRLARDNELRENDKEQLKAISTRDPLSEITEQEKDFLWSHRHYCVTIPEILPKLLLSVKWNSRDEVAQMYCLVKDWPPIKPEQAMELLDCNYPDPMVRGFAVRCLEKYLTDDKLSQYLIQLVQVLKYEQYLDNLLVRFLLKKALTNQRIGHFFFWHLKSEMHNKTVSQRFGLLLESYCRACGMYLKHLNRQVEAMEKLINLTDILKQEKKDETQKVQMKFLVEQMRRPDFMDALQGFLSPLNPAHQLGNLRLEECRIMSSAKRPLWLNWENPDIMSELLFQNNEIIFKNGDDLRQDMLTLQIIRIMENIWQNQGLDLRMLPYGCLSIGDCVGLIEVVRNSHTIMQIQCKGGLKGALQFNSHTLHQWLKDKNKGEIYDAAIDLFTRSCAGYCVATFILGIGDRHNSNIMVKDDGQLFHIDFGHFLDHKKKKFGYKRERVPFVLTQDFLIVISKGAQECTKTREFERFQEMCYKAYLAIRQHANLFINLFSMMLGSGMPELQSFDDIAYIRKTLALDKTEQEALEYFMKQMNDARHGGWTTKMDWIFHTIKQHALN
T1 sequence (P27986 whole entry partner): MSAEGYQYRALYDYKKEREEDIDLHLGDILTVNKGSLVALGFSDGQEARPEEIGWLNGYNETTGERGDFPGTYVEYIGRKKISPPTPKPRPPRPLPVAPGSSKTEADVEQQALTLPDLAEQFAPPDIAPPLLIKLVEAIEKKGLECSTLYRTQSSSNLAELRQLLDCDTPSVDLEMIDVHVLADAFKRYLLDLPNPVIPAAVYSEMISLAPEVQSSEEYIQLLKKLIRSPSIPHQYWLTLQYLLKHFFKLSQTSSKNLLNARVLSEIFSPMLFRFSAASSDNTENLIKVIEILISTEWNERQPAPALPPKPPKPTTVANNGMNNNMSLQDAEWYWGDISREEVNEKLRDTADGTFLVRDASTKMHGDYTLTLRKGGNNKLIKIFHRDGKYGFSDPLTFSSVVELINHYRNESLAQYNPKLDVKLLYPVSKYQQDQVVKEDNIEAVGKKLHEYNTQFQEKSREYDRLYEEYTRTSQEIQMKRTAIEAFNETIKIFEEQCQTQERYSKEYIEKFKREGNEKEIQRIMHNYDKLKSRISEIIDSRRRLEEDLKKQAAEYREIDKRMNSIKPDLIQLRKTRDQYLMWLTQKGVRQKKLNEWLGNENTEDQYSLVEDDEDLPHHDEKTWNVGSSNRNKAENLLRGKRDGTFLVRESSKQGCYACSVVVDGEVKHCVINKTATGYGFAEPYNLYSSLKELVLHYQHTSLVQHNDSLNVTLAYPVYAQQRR

IC50	T47D pAKT S473 HTRF IC50 (H1047R): T47D (H1047R) selectivity over SKBR3 (WT)	SMILES
> 2000 nM	C (C denotes ≤5-fold)	Cc1cc([C@H](C)Nc2ccccc2C(=O)O)c2nc(-c3ccc4c(c3)c(N)nn4C)cc(=O)n2c1 [Compound 786]
100 to 500 nM	A (A denotes >20-fold)	Cc1cc([C@H](C)Nc2ccccc2C(=O)O)c2nc(-c3ccc4c(c(N)nn4C)c3C)c(C)c(=O)n2c1 [Compound 788]
> 2000 nM	C (C denotes ≤5-fold)	CCC(=O)Nc1ccc(C(=O)O)c(NC(C)c2cc(C)cn3c(=O)cc(N4CCOCC4)nc23)c1 (centres unmarked) [Compound 791]
> 2000 nM	C (C denotes ≤5-fold)	CC(=O)Nc1nn(C)c2ccc(-c3cc(=O)n4cc(C)cc([C@@H](C)Nc5ccccc5C(=O)O)c4n3)cc12 [Compound 793]
> 2000 nM	C (C denotes ≤5-fold)	C=C(C)N1CCC([C@@H]2C[C@@H]3CN(c4cc(=O)n5cc(C)cc([C@H](C)Nc6ccccc6C(=O)O)c5n4)C[C@@H]3C2)CC1 [Compound 796]
> 2000 nM	C (C denotes ≤5-fold)	Cc1cc(C(C)Nc2ccccc2C(=O)O)c2nc(-n3cnc4ccc(O)cc43)cc(=O)n2c1 (centres unmarked) [Compound 799]
> 2000 nM	C (C denotes ≤5-fold)	Cc1cc(C(C)Nc2ccccc2C(=O)O)c2nc(-n3cnc4ccc(O)cc43)cc(=O)n2c1 (centres unmarked) [Compound 801]
> 2000 nM	C (C denotes ≤5-fold)	Cc1cc([C@@H](C)Nc2cccc3nonc23)c2nc(N3CCOCC3)cc(=O)n2c1 [Compound 802]
> 2000 nM	C (C denotes ≤5-fold)	Cc1cc([C@H](C)Nc2ccccc2C(=O)O)c2nc(-c3ccc4c(c3)c(C(F)F)nn4C)cc(=O)n2c1 [Compound 808]
> 2000 nM	C (C denotes ≤5-fold)	Cc1cc([C@H](C)Nc2ccccc2C(=O)O)c2nc(-c3cnc4cc(O)ccn34)cc(=O)n2c1 [Compound 812]
> 2000 nM	C (C denotes ≤5-fold)	Cc1cc(C(C)Nc2ccccc2C(=O)O)c2nc(-c3c(C)ccc4[nH]ncc34)c(C)c(=O)n2c1 (centres unmarked) [Compound 813]
> 2000 nM	C (C denotes ≤5-fold)	Cc1cc(C(C)Nc2ccccc2C(=O)O)c2nc(-c3c(C)ccc4c3cnn4C)cc(=O)n2c1 (centres unmarked) [Compound 817]
< 100 nM	A (A denotes >20-fold)	Cc1cc(C(C)Nc2ccccc2C(=O)O)c2nc(-c3ccc4c(C)nn(C)c4c3)cc(=O)n2c1 (centres unmarked) [Compound 818]
	C (C denotes ≤5-fold)	Cc1cc([C@H](C)Nc2ccccc2C(=O)O)c2nc(-c3ccc4c(C)nn(C)c4c3)cc(=O)n2c1 [Compound 820]
100 to 500 nM	A (A denotes >20-fold)	Cc1cc(C(C)Nc2ccccc2C(=O)O)c2nc(-c3ccc4c(c3)CC(F)(F)C4)cc(=O)n2c1 (centres unmarked) [Compound 821]

Second part, the compound before the results:

SMILES	IC50	T47D pAKT S473 HTRF IC50 (H1047R): T47D (H1047R) selectivity over SKBR3 (WT)
Cc1cc([C@@H](C)Nc2ccccc2C(=O)O)c2nc(-c3ccc4c(c(N)nn4C)c3C)c(C)c(=O)n2c1 [Compound 787]	> 2000 nM	C (C denotes ≤5-fold)
Cc1cc(C(C)Nc2ccccc2C(=O)O)c2nc(-c3ccc4c(c3)c(=O)[nH]n4C)cc(=O)n2c1 (centres unmarked) [Compound 790]	> 2000 nM	C (C denotes ≤5-fold)
CC(=O)Nc1nn(C)c2ccc(-c3cc(=O)n4cc(C)cc(C(C)Nc5ccccc5C(=O)O)c4n3)cc12 (centres unmarked) [Compound 792]	> 2000 nM	C (C denotes ≤5-fold)
C=C(C)Nc1nn(C)c2ccc(-c3cc(=O)n4cc(C)cc([C@H](C)Nc5ccccc5C(=O)O)c4n3)cc12 [Compound 794]	100 to 500 nM	A (A denotes >20-fold)
Cc1cc([C@@H](C)Nc2ccccc2C(=O)O)c2nc(-c3ccc4c(c3)c(C)cn4C)cc(=O)n2c1 [Compound 797]	> 2000 nM	C (C denotes ≤5-fold)
Cc1cc([C@H](C)Nc2ccccc2C(=O)O)c2nc(-c3ccc4c(c3)c(C)cn4C)cc(=O)n2c1 [Compound 798]	< 100 nM	A (A denotes >20-fold)
Cc1cc([C@H](C)Nc2ccccc2C(=O)O)c2nc(-c3cnc4c(c3)c(C)c(C)n4C)c(C)c(=O)n2c1 [Compound 805]	> 2000 nM	C (C denotes ≤5-fold)
Cc1cc(CCNc2ccc(F)cc2C(=O)O)c2nc(N3CCOCC3)cc(=O)n2c1 [Compound 806]	> 2000 nM	C (C denotes ≤5-fold)
Cc1cc([C@@H](C)Nc2ccccc2C(=O)O)c2nc(-c3ccc4snc(N)c4c3)cc(=O)n2c1 [Compound 809]	< 100 nM	A (A denotes >20-fold)
Cc1cc([C@H](C)Nc2ccccc2C(=O)O)c2nc(-c3ccc4snc(N)c4c3)cc(=O)n2c1 [Compound 810]	> 2000 nM	C (C denotes ≤5-fold)
Cc1cc([C@H](C)Nc2ccccc2C(=O)O)c2nc(-c3cc4c(cc3C)CC(N)=N4)cc(=O)n2c1 [Compound 811]	500 to 2000 nM	B (B denotes 20-fold≥value>5-fold)
Cc1cc([C@H](C)Nc2ccccc2C(=O)O)c2nc(-c3c(C)ccc4[nH]ncc34)cc(=O)n2c1 [Compound 814]	> 2000 nM	C (C denotes ≤5-fold)
Cc1cc([C@H](C)Nc2ccccc2C(=O)O)c2nc(-c3c(C)ccc4c3cnn4C)cc(=O)n2c1 [Compound 815]	> 2000 nM	C (C denotes ≤5-fold)
Cc1cc([C@@H](C)Nc2ccccc2C(=O)O)c2nc(-c3c(C)ccc4c3cnn4C)cc(=O)n2c1 [Compound 816]	> 2000 nM	C (C denotes ≤5-fold)
Cc1cc([C@@H](C)Nc2ccccc2C(=O)O)c2nc(-c3ccc4c(C)nn(C)c4c3)cc(=O)n2c1 [Compound 819]	< 100 nM	A (A denotes >20-fold)
